In patent US20090087425A1, “Combination of nitroderivatized steroid and bronchodilator for treating respiratory disease” (Topigen Pharmaceuticals Inc., priority 2007, published 2009):
Values joined by “and” are separate entries in the source; they are usually repeats but may differ in a detail not shown here. Equal values may be shown once. “Also recorded” adds a separate entry of the source. Read-outs that look alike come from different tables or passages of the source.

Legend:
[1] = tested on: bronchoconstriction induced by histamine; assay: Histamine-induced bronchoconstriction in conscious guinea-pigs, whole body plethysmography (sGaw); format: in vivo, guinea-pig; conditions: for Duration of significant reduction of AHR after treatment: TPI-1020 0.3 mg/ml, or TPI-1020 0.3 mg/ml + salbutamol 20 μg/ml
[2] = asthmatic patients, cited from earlier work
[3] = tested on: bronchoconstriction induced by methacholine; assay: Methacholine-induced bronchoconstriction in conscious guinea-pigs, whole body plethysmography (sGaw); format: in vivo, guinea-pig
Experimental: Groups of six male Dunkin-Hartley guinea-pigs, weighing 350-450 g were used throughout. Animals received food and water ad libitum and lighting was maintained in the room (22+/−2° C.) on a 12 h cycle. This work complied with the guidelines for the care and use of laboratory animals according to the Animals (Scientific Procedures) Act 1986.
Whole body plethysmography of the conscious guinea-pig was used to monitor airway function, recorded as specific airways conductance (sGaw). The method was as described by Griffiths-Johnson et al. (J. Pharmacol. Meth. 1988; 11:233-240), although a computerized data acquisition system replaced the original oscilloscope and angle resolver (Danahay et al. Clin. Exp. Allergy 1997; 28:513-522). Animals were fitted with a face mask and placed in a restrainer which was then slid into the plethysmograph chamber. The computer ran AcqKnowledge software using a Biopack data acquisition system. This system was capable of acquiring and storing data referring to the air across a pneumotachograph (Mercury FIL) as the animal breathed. The resulting change in box volume (pressure) was simultaneously measured.
Changes in air flow and box pressure were measured using UP1 and UP2 pressure transducers, respectively. The resulting waveforms could then be rapidly analysed by comparing the gradients of the flow and the box pressure waves at a point where flow tended towards zero, i.e. end tidal flow. A function of these two parameters, allowing for air pressure and the weight of the animal, gave the resulting value for specific airway conductance (sGaw). A minimum of five breaths were analysed for each animal at each time point to arrive at a mean value, which is the reported value.
In the experimental examples described herein, the reported values for sGaw measurements were taken following histamine or […] without treatment. This pre-treatment sGaw value measured after histamine or methacholine challenge, by convention, determined 100% bronchoconstriction for the animal. Following treatment with the experimental agents, including agents which are part of the subject invention, sGaw values (level of bronchoconstriction) were reported as a percentage of the pre-treatment value. Thus, a 10% post-treatment sGaw value, as compared to the 100% pre-treatment sGaw, is a 90% reduction in bronchoconstriction, or 90% reduction of airway hyperresponse (AHR). A 20% post-treatment sGaw value corresponds to an 80% reduction in bronchoconstriction or AHR. Thus, the lower the post-treatment sGaw value, the better the reduction of bronchoconstriction and AHR. For purposes of the subject invention, the more desired response is a lower sGaw value (less histamine- or methacholine-induced bronchoconstriction, and less AHR).
All drugs or vehicle were delivered as a whole body exposure chamber. […]
Tiotropium is an antimuscarinic or anticholinergic bronchodilator, different from the beta-agonist bronchodilators, such as salbutamol, described above. Baseline readings were taken on Day 1 prior to treatment (Pre-treatment) to determine 100% bronchoconstriction or AHR induced by methacholine. Recordings of sGaw were made at 0, 5 and 10 minutes after the […] (Post-treatment). The sGaw values of Day 3 are expressed as a percentage of Day 1 sGaw values following methacholine challenge (Pre-treatment), which is by definition set at 100%. Each point represents the mean+/−S.E.M. (n=6). Statistical significance was determined for p<0.05 using Student's paired t-test.
On Day 3, animals were treated with vehicle, alone, or with 1.0, 3.0, or 10.0 ug/ml of tiotropium. […] A dose of 0.1 µg/ml of tiotropium provided less than 40% reduction of AHR.

muscarinic receptors = conditions: cited from earlier work
[4] = tested on: recruitment of inflammatory cells (neutrophils); conditions: cited from earlier work
[5] = FIG. 1B, budesonide 0.44 mg/ml, equimolar to 0.63 mg/ml TPI-1020
[6] = FIG. 2B, budesonide 0.44 mg/ml, equimolar to 0.63 mg/ml TPI-1020
[7] = FIG. 3, salbutamol 30 μg/ml, 30 mins before histamine
[8] = FIG. 3, salbutamol 30 μg/ml, 60 mins before histamine
[9] = FIG. 3, salbutamol 30 μg/ml, 90 mins before histamine
[10] = FIG. 2D, TPI-1020 0.11 mMl (0.1 mg/ml in text)
[11] = FIG. 3, TPI-1020 0.3 mg/ml, 30 mins before histamine
[12] = FIG. 3, TPI-1020 0.3 mg/ml, 60 mins before histamine
[13] = FIG. 3, TPI-1020 0.3 mg/ml, 90 mins before histamine

CC(=O)N[C@H](C(=O)O)C(C)(C)SN=O (racemic) [SNAP, S-nitroso-N-acetylpenicillamine]
% Inhibition ([1]; FIG. 2C, SNAP 0.15 mg/ml): 20% and 19% | Post-treatment (% sGaw) ([1]; FIG. 2C, SNAP 0.15 mg/ml): −81.2 % sGaw | % Inhibition ([1]; FIG. 2C, SNAP 0.31 mg/ml): 47% | Post-treatment (% sGaw) ([1]; FIG. 2C, SNAP 0.31 mg/ml): −52.6 % sGaw | % Inhibition ([1]; FIG. 2D, SNAP 0.7 mM): 19% | Post-treatment (% sGaw) ([1]; FIG. 2D, SNAP 0.7 mM): −81.2 % sGaw

CCCC1O[C@@H]2C[C@H]3[C@@H]4CCC5=CC(=O)C=C[C@]5(C)[C@H]4[C@@H](O)C[C@]3(C)[C@]2(C(=O)CO)O1 (stereo partly drawn) [Budesonide, budesonide]
% Inhibition [1, 5]: 35% | Post-treatment (% sGaw) [1, 5]: −65.2 % sGaw | % Inhibition [1, 6]: 35% | Post-treatment (% sGaw) [1, 6]: −65.2 % sGaw | % Inhibition ([1]; FIG. 2B, budesonide 0.44 mg/ml, equimolar to 0.63 mg/ml TPI-1020, listed as budesonide): 40% | % Inhibition ([1]; FIG. 2D, budesonide 0.11 mM): 18% | Post-treatment (% sGaw) ([1]; FIG. 2D, budesonide 0.11 mM): −81.8 % sGaw

COc1ccc(CC(C)NCC(O)c2ccc(O)c(NC=O)c2)cc1 (stereo not drawn) [Formoterol, formoterol]
Duration of bronchodilation ([2]; dose 6 μg): 8 h | Duration of bronchodilation ([2]; dose 12 μg): 10 h | Duration of bronchodilation ([2]; dose 24 μg): 12 h

CC(C)(C)NCC(O)c1ccc(O)c(CO)c1 (stereo not drawn) [Salbutamol, salbutamol]
% Inhibition ([1]; FIG. 1C, salbutamol 3 μg/ml): 12% | Post-treatment (% sGaw) ([1]; FIG. 1C, salbutamol 3 μg/ml): −87.6 % sGaw | % Inhibition ([1]; FIG. 1C, salbutamol 3 μg/ml, listed as salbutamol): no significant inhibition effect | % Inhibition ([1]; FIG. 1C, salbutamol 10 μg/ml): 3% | Post-treatment (% sGaw) ([1]; FIG. 1C, salbutamol 10 μg/ml): −96.7 % sGaw | % Inhibition ([1]; FIG. 1C, salbutamol 10 μg/ml, listed as salbutamol): no significant inhibition effect | % Inhibition ([1]; FIG. 1C, salbutamol 20 μg/ml): 20% | Post-treatment (% sGaw) ([1]; FIG. 1C, salbutamol 20 μg/ml): −80.1 % sGaw | % Inhibition ([1]; FIG. 1C, salbutamol 30 μg/ml): 84% | Post-treatment (% sGaw) ([1]; FIG. 1C, salbutamol 30 μg/ml): −15.6 % sGaw | % Inhibition ([1]; FIG. 1C, salbutamol 30 μg/ml, listed as salbutamol): 85% | % Inhibition ([1]; FIG. 2D, salbutamol 20 μg/ml): 11% | Post-treatment (% sGaw) ([1]; FIG. 2D, salbutamol 20 μg/ml): −89.0 % sGaw | % Inhibition ([1]; FIG. 2D, salbutamol 20 μg/ml, listed as salbutamol): insignificant reduction of AHR; also recorded: do not significantly reduce AHR | % Inhibition [1, 7]: 84% | Post-treatment (% sGaw) [1, 7]: −15.6 % sGaw | % Inhibition [1, 8]: 47% | Post-treatment (% sGaw) [1, 8]: −52.7 % sGaw | % Inhibition [1, 9]: 9% | Post-treatment (% sGaw) [1, 9]: −91.4 % sGaw | Duration of significant reduction of AHR after treatment ([1]; FIG. 3, salbutamol 30 μg/ml): 60 min

C[N+]1(C)[C@@H]2C[C@@H](OC(=O)C(O)(c3cccs3)c3cccs3)C[C@H]1[C@@H]1O[C@@H]12 [Tiotropium, tiotropium]
% Inhibition ([3]; FIG. 5A, tiotropium 1 μg/ml): 35% | Post-treatment (% sGaw) ([3]; FIG. 5A, tiotropium 1 μg/ml): −65.2 % sGaw | % Inhibition ([3]; FIG. 5A, tiotropium 3 μg/ml): 73% | Post-treatment (% sGaw) ([3]; FIG. 5A, tiotropium 3 μg/ml): −26.7 % sGaw | % Inhibition ([3]; FIG. 5A, tiotropium 3 μg/ml, listed as tiotropium): about 75% | % Inhibition ([3]; FIG. 5A, tiotropium 10 μg/ml): ~85% | Post-treatment (% sGaw) ([3]; FIG. 5A, tiotropium 10 μg/ml): −14.9 % sGaw | % Inhibition ([3]; FIG. 5C, tiotropium 1 μg/ml): 35% | Post-treatment (% sGaw) ([3]; FIG. 5C, tiotropium 1 μg/ml): −65.2 % sGaw | Selectivity for specific muscarinic receptors (muscarinic receptors): does not display selectivity for specific muscarinic receptors

budesonide 21-(4′-nitrooxymethyl)benzoate [TPI-1020]
% Inhibition ([1]; FIG. 1A, TPI-1020 0.1 mg/ml inhaled 15 min before 3 mM histamine): 20% and 21% | % Inhibition ([1]; FIG. 1A, TPI-1020 0.3 mg/ml): 48% | % Inhibition ([1]; FIG. 1A, TPI-1020 0.63 mg/ml): 95% | Post-treatment (% sGaw) ([1]; FIG. 2A, TPI-1020 0.1 mg/ml): −83.2 % sGaw | % Inhibition ([1]; FIG. 2A, TPI-1020 0.3 mg/ml): 48% and 50% | Post-treatment (% sGaw) ([1]; FIG. 2A, TPI-1020 0.3 mg/ml): −49.5 % sGaw | % Inhibition ([1]; FIG. 2A, TPI-1020 0.63 mg/ml): 80% and 72% | Post-treatment (% sGaw) ([1]; FIG. 2A, TPI-1020 0.63 mg/ml): −27.9 % sGaw | % Inhibition [1, 10]: insignificant reduction of AHR | Post-treatment (% sGaw) [1, 10]: −83.2 % sGaw | % Inhibition [1, 11]: 50% | Post-treatment (% sGaw) [1, 11]: −49.5 % sGaw | % Inhibition [1, 12]: 7% | Post-treatment (% sGaw) [1, 12]: −92.7 % sGaw | % Inhibition [1, 13]: −20% | Post-treatment (% sGaw) [1, 13]: −120.1 % sGaw | Duration of significant reduction of AHR after treatment ([1]; FIG. 3, salbutamol 30 μg/ml): 30 min | % Inhibition ([1]; FIG. 4B, TPI-1020 0.1 mg/ml): 17% | Post-treatment (% sGaw) ([1]; FIG. 4B, TPI-1020 0.1 mg/ml): −83.2 % sGaw | % Inhibition ([1]; FIG. 4B, TPI-1020 0.3 mg/ml): −20% | Post-treatment (% sGaw) ([1]; FIG. 4B, TPI-1020 0.3 mg/ml): −120.3 % sGaw | Post-treatment (% sGaw) ([3]; FIG. 5B, TPI-1020 0.1 mg/ml, 30 mins before methacholine): −94.0 % sGaw | Post-treatment (% sGaw) ([3]; FIG. 5B, TPI-1020 0.1 mg/ml, 90 mins before methacholine): −86.9 % sGaw | Post-treatment (% sGaw) ([3]; FIG. 5B, TPI-1020 0.3 mg/ml, 30 mins before methacholine): −18.4 % sGaw | Post-treatment (% sGaw) ([3]; FIG. 5B, TPI-1020 0.3 mg/ml, 90 mins before methacholine): −65.3 % sGaw | Post-treatment (% sGaw) ([3]; FIG. 5C, TPI-1020 0.1 mg/ml): −86.9 % sGaw | Release in the lung of key mediators of inflammation ([4]; pre-clinical studies): significantly reduce release in the lung of key mediators of inflammation | Recruitment of inflammatory cells (neutrophils) ([4]; rodent models of airway inflammation and pulmonary disease): significantly block the recruitment of inflammatory cells (neutrophils)
